From article PMC8910697, “Development of VPC-70619, a Small-Molecule N-Myc Inhibitor as a Potential Therapy for Neuroendocrine Prostate Cancer” (International Journal of Molecular Sciences, 2022) come the findings set out here.

Holding throughout (assay type): cell-based
Test [1] has as its system N-Myc-Max transcription activity (LNCaP-NMYC cells). Kind of test: Myc transcription assay (Cignal Myc reporter, luciferase) in LNCaP-NMYC cells. The following applies: for IC50: Homo sapiens, LNCaP, Table 1, transcriptional assay in LNCaP cells overexpressing N-Myc, read-out: IC50; for transcription inhibition activity (in words) / transcription inhibition activity at 5 µM (in words): LNCaP-NMYC; for transcription inhibition activity (in words): screened at 10 µM and 5 µM. As to the method: To determine the optimal substitutions on the free phenyl ring, we used the active scaffold for a second substructure search against the ZINC15 database to identify a set of 181 analogues for further validation (VPC-70617 to -70799, presented in Supplementary Table S1). Compounds were tested for their inhibition of a N-Myc-Max luciferase transcription activity assay at 5 and 10 µM Figure 2a. Herein, we inspected all the proposed substitutions on the scaffold to discern the features required to construct a possible SAR model for inhibitors targeting N-Myc-Max/DBD complex (Figure 2b).
LNCaP-NMYC cells were transfected using TransIT-2020 transfection reagents per the manufacturer’s protocol. Cells were plated at a density of 10,000 cells per well of a 96-well plate. Following 24 h treatment with 5 µM or 10 µM of the compounds, the Myc reporter activity was measured using the Cignal Myc Reporter Assay Kit from Qiagen (#336841) (Hilden, Germany) per the manufacturer’s instructions.

Test [2] has the same test system. Described as above.
For a further test, the system named is IMR32 cells. Kind of test: Cell viability (CellTiter-Glo), IMR32. Particulars: Homo sapiens, IMR-32. On the procedure: (§1) The 54 compounds were tested at 10 µM for their inhibition of the IMR32 human neuroblastoma cell line, in which the MYCN gene is amplified and actively expressed (Table 3). HO15.19 cell line (Myc-negative) was used in parallel as a compound specificity control.
(§2) Viability of N-Myc positive (IMR32and NCI-H660) and negative (HO15.19) cells were determined using the CellTiter-Glo Luminescent Cell Viability Assay (Promega cat. G7570) (Madison, WI, USA). Cells were seeded into a 96-well white plate with a clear bottom: 10,000 cells per well for the IMR32 cells cultured in EMEM supplemented with 10% FBS, 2000 HO15.19 cells per well in Eagle’s minimum essential medium (EMEM) supplemented with 10% FBS, and 2000 cells per well for the NCI-H660 neuroendocrine cells cultured in RPMI supplemented 5% FBS, 1% Insulin-Transferrin-Selenium (Thermo Fisher, 41400-045), 10nM b-estradiol (Sigma, E8875), 10nM hydrocortisone (Sigma H0888) and 1% matrigel. Following 24 h incubation, the cells were treated with serial dilutions of the derivatives along with the respective parental compound starting at 25 μM for 72 h. Cell Titer Glo was added to each well at a ratio of 1:1 and incubated on a shaker at RT for 2 min. Luminescence and IC50 was measured with the TECAN InfiniteM200 plate reader (Männedorf, Switzerland).

The next test relates to HO15.19 cells. Kind of test: Cell viability counter-screen (CellTiter-Glo), Myc-negative HO15.19. Particulars: Rattus norvegicus, HO15.19, 10 µM; Myc-negative specificity control. On the procedure:
as §1, §2

Turning to `O=C(CCN1C(=O)/C(=C\c2ccccc2)SC1=S)NCCc1c[nH]c2ccccc12` [compound 70388], the IC50 in test [1] amounted to 20 µM. Further, the inhibition at 25 µM in test [2] stood at 77%.

Turning to `O=C(CCc1c[nH]c2ccccc12)Nc1nc2ccccc2[nH]1` [compound 70223], the IC50 in test [1] came out at 10 µM. For the same molecule, the inhibition at 25 µM in test [2] came out at 103%.

For the molecule `C[C@H](CCc1ccccc1)NC(=O)[C@H]1CCCN(C(=O)CCc2c[nH]c3ccccc23)C1` [compound 70314], the IC50 in test [1] amounted to 15 µM. Besides, the inhibition at 25 µM in test [2] came to 93%.

`Cc1cccc(-c2cc(C(=O)Nc3ccc(S(=O)(=O)N4CCCCC4)cc3)n[nH]2)c1O` [compound 70390]: the IC50 in test [1] worked out at 9 µM. Further, in test [2], the inhibition at 25 µM was 97%.

As for `FC(F)(F)c1cc(Br)cc(NC(=S)NCc2cccs2)c1` [compound 70495], the half-inhibitory concentration (IC50) in test [1] came out at 5 µM. In test [2], the inhibition at 25 µM was 100%.

As to `N#Cc1ccc(NNC(=O)c2ccc(I)c(F)c2)c(C(F)(F)F)c1` [compound 70742], in test [1], the “transcription inhibition activity (in words)” value is recorded as “better inhibition activity”. In addition, the inhibition at 10 µM stood at 26.1% in the test with IMR32 cells and 71.8% with HO15.19 cells.

For `Cc1cc(C(=O)NNc2ccc(C#N)cc2C(F)(F)F)cc(C)c1F` [compound 70679], in test [1], the “transcription inhibition activity (in words)” value was “strong increase in inhibition activity”. Moreover, the inhibition at 10 µM with IMR32 cells was determined as 1.1%; with HO15.19 cells, 7.3%.

With `N#Cc1ccc(NNC(=O)c2cc(F)c(F)c(F)c2)c(C(F)(F)F)c1` [compound 70686], the “transcription inhibition activity (in words)” value in test [1] is on record as “strong increase in inhibition activity”. For the same molecule, the results for the inhibition at 10 µM in the test on IMR32 cells and in the test with HO15.19 cells were 82.2% and 75.8%, respectively.

As to `N#Cc1ccc(NNC(=O)c2cc(Cl)c(N)c(Cl)c2)c(C(F)(F)F)c1` [compound 70695], in test [1], the “transcription inhibition activity (in words)” value is listed as “better inhibition activity”. Besides, the inhibition at 10 µM was 77.1% in the test with IMR32 cells and 41.2% with HO15.19 cells.

Regarding `N#Cc1ccc(NNC(=O)c2ccc(F)c(Br)c2)c(C(F)(F)F)c1` [compound 70734], in test [1], the “transcription inhibition activity (in words)” value was “strong increase in inhibition activity”. Further, the inhibition at 10 µM in the test with IMR32 cells is 86.5%; in the test on HO15.19 cells, 77.8%.

Consider `N#Cc1ccc(NNC(=O)c2ccc([N+](=O)[O-])cc2)c(C(F)(F)F)c1` [compound 70663], for which, in test [1], the “transcription inhibition activity (in words)” value is reported as “maintained good transcription inhibition activity”. Moreover, the results for the inhibition at 10 µM in the test on IMR32 cells and in the test on HO15.19 cells were 28.9% and 7.9%, respectively.

With `N#Cc1ccc(NNC(=O)c2ccc(Cl)c(C#N)c2)c(C(F)(F)F)c1` [compound 70662], the “transcription inhibition activity at 5 µM (in words)” value in test [1] was “recovered the activity”. For the same molecule, the inhibition at 10 µM in the test with IMR32 cells was 11%; in the test on HO15.19 cells it was 9.9%.

For `Cc1cc(Cl)cc(C(=O)NNc2ccc(C#N)cc2C(F)(F)F)c1` [compound 70675], the “transcription inhibition activity (in words)” value in test [1] is recorded as “better inhibition activity”. The values for the inhibition at 10 µM in the test with IMR32 cells and with HO15.19 cells were 65.4% and 65.9%, respectively.

For the molecule `N#Cc1ccc(NNC(=O)c2ccc(F)c(F)c2F)c(C(F)(F)F)c1` [compound 70715], in test [1], the “transcription inhibition activity (in words)” value is recorded as “strong increase in inhibition activity”. Besides, the inhibition at 10 µM with IMR32 cells is 14.4%; in the test on HO15.19 cells it was 39.9%.

Take `N#Cc1ccc(NNC(=O)c2ccc(Cl)c(Br)c2)c(C(F)(F)F)c1` [compound 70622]: in test [1], the “transcription inhibition activity (in words)” value is “good inhibition at both concentrations tested”. Moreover, the figures for the inhibition at 10 µM with IMR32 cells and in the test with HO15.19 cells were 99.4% and 36.4%, respectively.

On to `CC[C@@H]1Oc2cc(S(=O)(=O)N(C)CC(=O)N(C)Cc3ccccc3)c(C)cc2NC1=O` [compound 70381], for which the IC50 in test [1] is 20 µM. Further, the inhibition at 25 µM in test [2] amounted to 74%.

With `N#Cc1ccc(NNC(=O)c2cc(F)c(Cl)cc2Cl)c(C(F)(F)F)c1` [compound 70730], the “transcription inhibition activity (in words)” value in test [1] is “recovered the inhibition activity”. Besides, the results for the inhibition at 10 µM with IMR32 cells and with HO15.19 cells were 87.5% and 77.1%, respectively.

On to `N#Cc1ccc(NNC(=O)c2cc(F)cc(Br)c2)c(C(F)(F)F)c1` [compound 70739], for which the “transcription inhibition activity (in words)” value in test [1] is on record as “better inhibition activity”. Further, the inhibition at 10 µM in the test on IMR32 cells is 87.2%; in the test on HO15.19 cells, 75.8%.

With `N#Cc1ccc(NNC(=O)c2cc(Cl)ccc2O)c(C(F)(F)F)c1` [compound 70640], in test [1], the “transcription inhibition activity (in words)” value is “better inhibition activity”. The inhibition at 10 µM in the test on IMR32 cells stood at 93.5%; in the test on HO15.19 cells it was 76.7%.

Consider `N#Cc1ccc(NNC(=O)c2ccc(C(F)(F)F)c(F)c2)c(C(F)(F)F)c1` [compound 70693], for which, in test [1], the “transcription inhibition activity (in words)” value is on record as “strong increase in inhibition activity”. The values for the inhibition at 10 µM in the test on IMR32 cells and with HO15.19 cells were 22.4% and 0.2%, respectively.

As to `N#Cc1ccc(Cl)c(C(=O)NNc2ccc(C#N)cc2C(F)(F)F)c1` [compound 70698], in test [1], the “transcription inhibition activity (in words)” value was “high transcription inhibition activity”. The inhibition at 10 µM stood at 35.4% with IMR32 cells and 27.3% in the test on HO15.19 cells.

On to `N#Cc1ccc(NNC(=O)c2cccc(I)c2)c(C(F)(F)F)c1` [compound 70703], for which the “transcription inhibition activity (in words)” value in test [1] was “better inhibition activity”. Besides, the inhibition at 10 µM with IMR32 cells was determined as 18.5%; with HO15.19 cells, 13.5%.

On to `N#Cc1ccc(NNC(=O)c2ccc(Cl)c(F)c2)c(C(F)(F)F)c1` [compound 70621], for which, in test [1], the “transcription inhibition activity (in words)” value was “good inhibition at both concentrations tested”. The figures for the inhibition at 10 µM with IMR32 cells and with HO15.19 cells were 98.8% and 68.6%, respectively.

As to `N#Cc1ccc(NNC(=O)c2cc(F)c(F)cc2Cl)c(C(F)(F)F)c1` [compound 70659], the “transcription inhibition activity (in words)” value in test [1] is given as “strong increase in inhibition activity”. In addition, the results for the inhibition at 10 µM in the test with IMR32 cells and with HO15.19 cells were 31% and 31.5%, respectively.

As for `N#Cc1ccc(NNC(=O)c2ccc(F)c(C(F)(F)F)c2)c(C(F)(F)F)c1` [compound 70647], the “transcription inhibition activity (in words)” value in test [1] is recorded as “strong increase in inhibition activity”. The results for the inhibition at 10 µM in the test with IMR32 cells and in the test with HO15.19 cells were 88.6% and 70.9%, respectively.

As for `COc1cc(C(=O)NNc2ccc(C#N)cc2C(F)(F)F)ccc1Cl` [compound 70685], in test [1], the “transcription inhibition activity at 5 µM (in words)” value was “recovered the activity”. Also, the inhibition at 10 µM with IMR32 cells came to 24.7%; with HO15.19 cells it was 15.2%.

`N#Cc1ccc(NNC(=O)c2ccc(C(F)(F)F)cc2O)c(C(F)(F)F)c1` [compound 70797]: the “transcription inhibition activity (in words)” value in test [1] was “activity was maintained”. The inhibition at 10 µM turned out to be 24.7% in the test on IMR32 cells and 34.2% in the test with HO15.19 cells.

Regarding `O=C(NCc1cnn(Cc2ccccc2)c1)[C@@H]1COc2ccccc2O1` [compound 70215], the IC50 in test [1] is 20 µM. The inhibition at 25 µM in test [2] is 92%.

Consider `N#Cc1ccc(NNC(=O)c2ccc(C(F)(F)F)cc2Cl)c(C(F)(F)F)c1` [compound 70704], for which, in test [1], the “transcription inhibition activity (in words)” value is given as “strong increase in inhibition activity”. For the same molecule, the inhibition at 10 µM worked out at 10.6% with IMR32 cells and 13.6% in the test on HO15.19 cells.

On to `N#Cc1ccc(NNC(=O)c2ccc(F)c(C#N)c2)c(C(F)(F)F)c1` [compound 70696], for which the “transcription inhibition activity (in words)” value in test [1] was “strong increase in inhibition activity”. For the same molecule, the inhibition at 10 µM with IMR32 cells was 15.1%; with HO15.19 cells, 13.2%.

With `N#Cc1ccc(NNC(=O)c2ccc(SC(F)(F)F)cc2)c(C(F)(F)F)c1` [compound 70658], the “transcription inhibition activity (in words)” value in test [1] is “active”. The figures for the inhibition at 10 µM in the test with IMR32 cells and in the test on HO15.19 cells were 46.9% and 57.2%, respectively.

Take `N#Cc1ccc(NNC(=O)c2ccc(Br)c(F)c2)c(C(F)(F)F)c1` [compound 70743]: in test [1], the “transcription inhibition activity (in words)” value is given as “strong increase in inhibition activity”. Also, the inhibition at 10 µM turned out to be 38.7% with IMR32 cells and 74.9% in the test on HO15.19 cells.

Consider `Fc1ccccc1CNC(=S)Nc1cccc(C(F)(F)F)c1` [compound 70465], for which the IC50 in test [1] worked out at 10 µM. For the same molecule, in test [2], the inhibition at 25 µM came to 92%.
